{"source": "patent US20230057984A1", "about": "“NORMALIZATION OF CULTURE OF CORNEAL ENDOTHELIAL CELLS” (KYOTO PREFECTURAL PUBLIC UNIVERSITY CORPORATION, priority 2011, published 2023)", "molecules": {"B1": {"name": "BMP-7: bone morphogenic protein 7, anti-EMT factor, R&D SYSTEMS catalog number 354-BP (protein, UniProt P18075 293-431, looked up)", "Bone morphogenetic protein 7": "STGSKQRSQNRSKTPKNQEALRMANVAENSSSDQRQACKKHELYVSFRDLGWQDWIIAPEGYAAYYCEGECAFPLNSYMNATNHAIVQTLVHFINPETVPKPCCAPTQLNAISVLYFDDSSNVILKKYRNMVVRACGCH"}}, "key": {"[1]": {"system": "corneal endothelial failure model (bullous keratopathy model)", "assay": "Transplantation of cultured human corneal endothelial cells to cynomolgus monkey bullous keratopathy model (Example 9)", "type": "in vivo", "text": "Under general anesthesia, the peripheral portion of a cornea of a cynomolgus monkey is cut by 1.5 mm, and a silicon surgical instrument is inserted into an anterior chamber to mechanically currete a corneal endothelial cell, thus creating a bullous keratopathy model. Next, of human corneal endothelial cells cultured by the method according to the present invention ex vivo, 2.0×10^5 were suspended in a basal culture medium, and a ROCK inhibitor having an adhesion promoting effect, Y-27632, was added thereto such that the final concentration would be 100 μmol/l, followed by introduction into the anterior chamber. As a control, 2.0×10^5 human corneal endothelial cells, suspended in a basal culture medium, were introduced without a ROCK inhibitor. After introduction, the model was maintained with its head down for three hours so that the eyeball would be downwards, thus promoting cellular adhesion to the corneal endothelium surface. Therapeutic effects of bullous keratopathy by transplanting a cultured corneal endothelium sheet was evaluated by corneal transparency evaluation through a slit-lamp microscope, and corneal thickness measurement using a ultrasonic tachymeter (FIG. 14). […] Then, similar to Example 2, immunostaining was performed directed to phalloidin, Na^+/K^+-ATPase and ZO-1, followed by taking images using a fluorescence microscope (FIG. 15). […]"}, "[2]": {"system": "Human corneal endothelial cells", "assay": "Culture of human corneal endothelial cells with SB203580 in conjunction with SB431542 (Example 7)", "type": "cell-based", "settings": "HCEC", "protocol": "Corneal endothelial cells were mechanically exfoliated together with basement membranes from research corneas purchased from the Seattle bank, followed by exfoliating from the basement membranes using collagenase for collection, and then primary culturing. […] In addition, culturing was performed using a base culture medium with SB431542 (1 μmol/l, TOCRIS, catalog number:1614) added thereto, with SB203580 (1 μmol/l, CALBIOCHEM, catalog number: 559389) added thereto, and with SB431542 (1 μmol/l) and SB203580 (1 μmol/l) added thereto."}, "[3]": {"system": "Human corneal endothelial cells", "settings": "HCEC after subculturing", "protocol": "Next, subculturing was performed with trypsin. Comparison was made between cells cultured in Opti-MEM I Reduced-Serum Medium, Liquid (INVITROGEN catalog number: 31985-070)+8% fetal bovine serum (FBS) (BIOWEST, catalog number: S1820-500)+[…] CaCl2.2H2O (SIGMA catalog number: C7902-500G)+0.08% chondroitin sulfuric acid (SIGMA catalog number: C9819-5G)+20 μg ascorbic acid (SIGMA catalog number: A4544-25G)+50 μg/ml gentamicin (INVITROGEN catalog number: 15710-064)+5 ng/ml EGF (INVITROGEN catalog number: PHG0311) as a normal culture medium, and cells cultured in the above-mentioned culture medium with Smad3 inhibitor (0.3 mM and 3 mM) added thereto."}, "[4]": {"system": "monkey corneal endothelial cells", "assay": "Addition of TGF-β to monkey corneal endothelial cells: cell form and immunostaining (Example 4)", "type": "cell-based, cynomolgus monkey"}, "[5]": {"system": "monkey corneal endothelial cells", "assay": "Addition of TGF-β to monkey corneal endothelial cells: Western blot of Na+/K+-ATPase and ZO-1 (Example 4)", "type": "cell-based, cynomolgus monkey", "settings": "monkey CEC, TGF-β 0, 1, 3, 10, 30 ng/ml, concentration dependent"}, "Smad2": {"system": "Smad2", "assay": "Addition of TGF-β to monkey corneal endothelial cells: Western blot of pSmad2/Smad2 (Example 4)", "type": "cell-based, cynomolgus monkey", "settings": "monkey CEC, TGF-β 0, 1, 10 ng/ml"}, "[6]": {"system": "Human corneal endothelial cells", "assay": "Culture of human corneal endothelial cells with BMP-7: phase-contrast and phalloidin staining (Example 6)", "type": "cell-based", "protocol": "(§1) Next, by using three different concentrations, BMP7 was able to suppress the change in a HCEC to a fibroblast phenotype and to maintain the function thereof. […] Thus, this molecule is used to antagonize an EMT process [Zeisberg M, et al. (2003) Nat Med 9: 964-968], [Simic P, et al. (2007) EMBO Rep 8: 327-331], [Buijs J T, et al. (2007) Am J Pathol 171: 1047-1057], [Zeisberg M, et al. (2007) J Biol Chem 282: 23337-23347]. […] Fibroblast-like HCEC was treated with BMP-7 in the concentration ranging from 10 to 1,000 ng/ml."}, "[7]": {"system": "Human corneal endothelial cells", "assay": "Na+/K+-ATPase and ZO-1 staining of human corneal endothelial cells treated with BMP-7 (FIG. 10A C-F)", "type": "cell-based", "protocol": "For tissue staining examination, cultured MCECs or HCECs were put into Lab-Tek™ Chamber Slides™ (NUNC A/S, Roskilde, Denmark), fixed with 4% formaldehyde for 10 minutes at a room temperature (RT), and incubated for 30 minutes with 1% bovine serum albumin (BSA). Specifically, cultured MCECs or HCECs on the Lab-Tek™ Chamber Slides™ (NUNCA/S, Roskilde, Denmark) were fixed at a room temperature for 10 minutes in 4% formaldehyde, followed by incubation for 30 minutes together with 1% bovine serum albumin (BSA). In order to examine the phenotype of CEC, immunohistochemical analysis was directed to a protein associated with tight junction, ZO-1 (Zymed Laboratories, Inc., South San Francisco, Calif.), a protein associated with the pumping function, Na^+/K^+-ATPase (Upstate Biotec, Inc., Lake Placid, N.Y.), fibronectin (BD, Franklin Lakes, N.J.), and actine. As markers associated with the function of CEC, ZO-1 and Na^+/K^+-ATPase were used; fibronectin and type 1 collagen were used to evaluate the change in a fibroblastic manner; and staining of actine was used to evaluate the phenotype of the cells. Staining of ZO-1, Na^+/K^+-ATPase, type 1 collagen and fibronectin was each performed using 1:200 dilution of ZO-1 polyclonal antibody, Na^+/K^+-ATPase monoclonal antibody, and fibronectin monoclonal antibody. As to secondary antibody, 1:2000 dilution of Alexa Fluor (registered trademark) 488 label or Alexa Fluor (registered trademark) 594 label goat antimouse IgG (Life Technologies) was used. Staining of actine was performed using 1:400 dilution of Alexa Fluor (registered trademark) 488 label phalloidin (Life Technologies). Next, the nucleus of each cell was stained with DAPI (Vector Laboratories, Inc., Burlingame, Calif.) or PI (Sigma-Aldrich). Next, the slides were observed through a fluorescence microscope (TCS SP2 AOBS; Leica Microsystems, Welzlar, Germany).\nas §1"}, "[8]": {"settings": "fibroblast-like HCEC, BMP-7 10 to 1,000 ng/ml"}, "[9]": {"settings": "HCEC, three concentrations of BMP-7 vs additive-free control"}}, "note": "Read-outs that look alike come from different tables or passages of the source.", "data": [{"molecule": "C[C@@H](N)[C@H]1CC[C@H](C(=O)Nc2ccncc2)CC1.Cl.Cl.O", "note": "(relative stereo) [Y-27632, (R)-(+)-trans-(4-pyridyl)-4-(1-aminoethyl)-cyclohexanecarboxamide 2 hydrochloride 1 hydrate]", "values": [{"measurement": "therapeutic result: corneal transparency (slit-lamp microscope) and corneal thickness", "setting": "[1]; 2.0×10^5 cultured human corneal endothelial cells into anterior chamber, with or without Y-27632 100 μmol/l", "value": "further improved"}, {"measurement": "therapeutic result: immunostaining of phalloidin, Na+/K+-ATPase and ZO-1 of extracted corneas", "setting": "[1]; 2.5 months after introduction, cells alone or cells + ROCK inhibitor", "value": "further improved"}]}, {"molecule": "C[S+]([O-])c1ccc(-c2nc(-c3ccc(F)cc3)c(-c3ccncc3)[nH]2)cc1", "note": "(centres unmarked) [SB203580, 4-[4-(4-fluorophenyl)-2-(4-methylsulfinylphenyl)-1H-imidazole-5-yl]pyridine]", "values": [{"measurement": "corneal endothelium density", "setting": "[2]; SB203580 1 μmol/l added to SB431542 1 μmol/l", "value": "increased"}, {"measurement": "culture normalization", "setting": "[2]; SB203580 1 μmol/l in conjunction with SB431542 1 μmol/l, repeated subculturing", "value": "culture normalization was enhanced"}]}, {"molecule": "COc1cc2c(cc1OC)CN(C(=O)/C=C/c1c(-c3ccccc3)n(C)c3ncccc13)CC2", "note": "[Smad3 inhibitor, 6,7-dimethoxy-2-((2E)-3-(1-methyl-2-phenyl-1H-pyrrolo[2,3-b]pyridine-3-yl-prop-2-enoyl))-1,2,3,4-tetrahydroiso quinolone]", "values": [{"measurement": "cell form (phase-contrast microscope)", "setting": "[3]; Smad3 inhibitor 0.3 mM vs normal culture medium", "value": "a layer of polygonal cells with high density were maintained"}, {"measurement": "cell form (phase-contrast microscope)", "setting": "[3]; Smad3 inhibitor 3 mM vs normal culture medium", "value": "a layer of polygonal cells with high density were maintained"}]}, {"molecule": "TGF-β: transforming growth factor-β, R&D SYSTEMS catalog number 240-B, added to induce transformation", "values": [{"measurement": "cell form of normal phenotype after exposure to exogenous TGF-β", "setting": "[4]; monkey CEC cultured to sub-confluency, TGF-β1 0, 1, 10 ng/mL", "value": "transformed into a fibroblast-like cell"}, {"measurement": "staining patterns of Na+/K+-ATPase and ZO-1 in plasma membranes", "setting": "[4]; monkey CEC normal phenotype exposed to TGF-β", "value": "completely lost"}, {"measurement": "expression of Na+/K+-ATPase and ZO-1 at the protein level (Western blot)", "setting": "[5]", "value": "significantly decreased"}, {"measurement": "phosphorylation of Smad2 (Western blot)", "setting": "Smad2", "value": "greatly increased in the concentration dependent form"}]}, {"molecule": "B1", "values": [{"measurement": "cell form (phalloidin staining and phase-contrast microscope)", "setting": "[6]; HCEC subcultured in conditioned culture medium with BMP-7 100 ng/ml, control transformed, multi-layered", "value": "the form of a layer of polygonal cells was maintained"}, {"measurement": "cell form and actine cytoskeleton distribution (phalloidin staining)", "setting": "[6]; [8]", "value": "allowed for a normal hexagonal cell form, and allowed for cytoskeleton distribution on the cell surface of actine"}, {"measurement": "elongated cell form of fibroblast phenotype (phase-contrast)", "setting": "[6]; fibroblast-like HCEC, BMP-7 10 to 1,000 ng/ml, concentration-dependent manner", "value": "converted into a polygonal cell form"}, {"measurement": "maintaining CEC in polygonal form and contact inhibition phenotype with positive expression of function-associated marker", "setting": "[7]; HCEC, BMP-7 10 ng/ml", "value": "tendency was seen"}, {"measurement": "maintaining CEC in polygonal form and contact inhibition phenotype with positive expression of function-associated marker", "setting": "[7]; HCEC, BMP-7 100 ng/ml", "value": "tendency increased"}, {"measurement": "maintaining CEC in polygonal form and contact inhibition phenotype with positive expression of function-associated marker", "setting": "[7]; HCEC, BMP-7 1,000 ng/ml", "value": "tendency was more significant"}, {"measurement": "percentage of Na+/K+-ATPase positive cell", "setting": "[7]; [9]", "value": "significantly increased"}, {"measurement": "percentage of ZO-1 positive cell", "setting": "[7]; [9]", "value": "significantly increased"}, {"measurement": "intracellular localization of Na+/K+-ATPase and ZO-1", "setting": "[7]; [8]", "value": "maintained the intracellular localization of Na^+/K^+-ATPase and ZO-1 in a cell membrane"}, {"measurement": "harmful effects with regard to the forms or functions", "setting": "HCEC", "value": "not seen any clear, harmful effects"}]}]}
